One data set has as its system HL-60. The data set can be described thus: Cytotoxicity on HL-60 (viable cell count, Trypan Blue). It counts as cell-based. Particulars: human, 5 days. The procedure:
After the completion of the incubation, the total cell count was calculated with a Burker-Turk calculation board and the viable cell count was calculated by regarding the cells stained with Trypan Blue as the dead ones. Thus ID₅₀ and LD₅₀ were determined. Further, a cytospin slide was prepared and the morphology of the cells was observed by the May-Giemsa staining method.

The test system of a further data set is mice. Conditions: cited from earlier work.
A further data set has as its system APL. Particulars: clinical data, Blood, 72, 567 - 572 (1988); cited from earlier work.
Data set [1] in a line: Acute toxicity test, single dose, ICR mice. Conditions: in vivo, Mouse (ICR). The procedure: (§1) By using 5 female and 5 male SD rats and ICR mice aged 7 to 8 weeks, the toxicities of the compound of the present invention were tested through oral, intramuscular, subcutaneous and intraperitoneal administrations each in a single dose (medium: 5% gum arabic).
A short description of data set [2]: Acute toxicity test, single dose, SD rats. Particulars: in vivo, Rat (SD). The procedure: as §1
The subject of a further data set is cells of APL patients. The data set is described as follows: Ability to induce differentiation of cells of APL patients. It counts as cell-based, human. The procedure: To illustrate the usefulness of the compound of the present invention as a differentiation inducer, a test example on the effects of the compound of the present invention on leukemic cells of APL patients and various cultured human leukemic cell lites will be given. The backgrounds of the patients providing the bloods employed in the test are as follows.
The cells samples from APL patients were adjusted to an initial cell count of 1 × 10⁶ cells/ml and incubated in the above-mentioned IMDM medium containing 10% of fetal calf serum for 5 days under the addition of the compound (I) or ATRA (10⁻⁶ to 10⁻⁸ mol/1), followed by the same evaluation as the one effected in the case of HL-60. Further, the ratio of mature cells to all the cells was determined in accordance with the following formula and taken as an indication for the comparison of the ability to induce differentiation: [formula]

For a further data set, the system named is mouse papilloma. Particulars: cited from earlier work.
Setting [3] is: female, ♀, oral, medium 5% gum arabic, read-out: LD₅₀ Oral.
Setting [4] is: female, ip, ♀, intraperitoneal, read-out: LD₅₀ Intraperitoneal.
[5] abbreviates: female, sc, ♀, subcutaneous, read-out: LD₅₀ Subcutaneous.
Where [6] appears, read: male, ♂, oral, medium 5% gum arabic, read-out: LD₅₀ Oral.
Setting [7] is: male, im, ♂, intramuscular, read-out: LD₅₀ Intramuscular.
Setting [8] is: male, ip, ♂, intraperitoneal, read-out: LD₅₀ Intraperitoneal.
[9] abbreviates: male, sc, ♂, subcutaneous, read-out: LD₅₀ Subcutaneous.

On to `CC1=C(/C=C/C(C)=C/C=C/C(C)=C/C(=O)O)C(C)(C)CCC1` [ATRA, all-trans-retinoic acid, reference compound], for which, in the data set on HL-60, the “ratio of the dead cells stained with Trypan Blue” value is at most 10%. For the same molecule, the “hypervitaminosis A (depilation, reduction in body weight)” value in the data set on mice was “suffered from hypervitaminosis A including depilation and reduction in body weight”. Besides, the “healing of APL patients” value in the data set on APL is given as “about 100%”.
For `CC(C)=CCC/C(C)=C/CC/C(C)=C/C=C/C(C)=C/C(=O)O` [compound (I), (2E,4E,6E,10E)-3,7,11,15-tetramethyl-2,4,6,10,14-hexadecapentaenoic acid], the LD50 was over 6250 mg/kg in data set [1] (setting [3]); over 2000 mg/kg in data set [1] (female, im, ♀, intramuscular, read-out: LD₅₀ Intramuscular); 1.1 mg/kg in data set [1] (setting [4]); over 4 mg/kg in data set [1] (setting [5]); over 6250 mg/kg in data set [1] (setting [6]); 2 mg/kg in data set [1] (setting [7]). For the same molecule, the LD50 in data set [1] (setting [8]) was 970 mg/kg; in data set [1] (setting [9]) it was over 4000 mg/kg; in data set [2] (setting [3]), 2850 mg/kg; in data set [2] (setting [4]), 680 mg/kg; in data set [2] (setting [5]), 2800 mg/kg; in data set [2] (setting [6]), 2400 mg/kg. Also, the LD50 in data set [2] (setting [7]) was determined as 830 mg/kg; in data set [2] (setting [8]), 731 mg/kg; in data set [2] (setting [9]) it was 2500 mg/kg. In addition, the “ratio of the dead cells stained with Trypan Blue” value with HL-60 is at most 10%. The “effect of inducing differentiation” value with cells of APL patients (5 days incubation, 10⁻⁶ to 10⁻⁸ mol/l) is “exhibited an effect of inducing differentiation similar to ATRA”. Also, the “efficacy on cells having a fused gene PML-RAR-α” value in the data set on cells of APL patients (PML/RAR-α (+)) was “effective in all of the cases”. Besides, in the data set on mouse papilloma, the antitumor effect entry was “exerts an antitumor effect”. Besides, the “hypervitaminosis A (depilation, reduction in body weight)” value in the data set with mice was “did not suffer from such a symptom”.

Source of the values: patent EP0614662A1, “Use of (2E,4E,6E,10E)-3,7,11,15-tetramethyl-2,4,6,10,14-hexadecapentaenoic acid for the treatment of leukaemia” (Eisai Co., Ltd., priority 1993, dated 1994).
